Patent publication US5128338A, “Imidazo [1,2-c] quinazoline compounds” (priority 1990, dated 1992)
Read-outs that look alike come from different tables or passages of the source.

Experiments:
[1] = target: T1, peripheral receptors for benzodiazepines ([^3 H]-PK 11195) (Rattus norvegicus, UniProt P16257); test: Displacement of [3H]-PK 11195, rat heart microsomal fractions; type: binding; details: corrected for DMSO, read-out: K0.5, peripheral receptors, [^3 H]--PK 11195;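 also: radioligand binding with bound label split from free by vacuum filtration, then quantified through liquid scintillation counting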
T1 construct: on microsomal fractions from rat heart; from tissue; host or cells: rat heart, microsomal fractions

[2] = target: T2, peripheral receptors for benzodiazepines ([^3 H]-R05-4864) (Rattus norvegicus, UniProt P16257); test: Displacement of [3H]-R05-4864, rat heart microsomal fractions; type: binding; details: corrected for DMSO, read-out: K0.5, peripheral receptors, [^3 H]--RO 54864;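 also: Read-out is filter-retained bound radioligand, separated from free ligand by vacuum filtration over GF/C and counted by liquid scintillation, with compounds first dissolved in DMSO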
T2 construct: on microsomal fractions from rat heart; from tissue; host or cells: rat heart, microsomal fractions

[3] = test system: porcine coronary; test: Porcine coronary relaxation (PGF2α-precontracted coronary segments); set-up: species or system pig (Yucatan mini pig); details: for EC20 / EC50: Sus scrofa; for EC20: read-out: DE20, effect on coronary tension induced by PGF2α; for EC50: read-out: DE50, effect on coronary tension induced by PGF2α; for level of relaxation obtained as well as the 50% effect value (K0.5) obtained by displacement: overall judgement of relaxation and K0.5
Experimental: All the products studied were dissolved in DMSO at a concentration of 10^-2 M, then diluted to the desired concentrations in the experimental media. All of the ED20, ED50 and K0.5 values were corrected for the values obtained with DMSO under the same conditions of dilution.
Coronaries were taken on the heart of pigs (Yucatan mini pig), anesthetized under stresnil and pentobarbital. Proximal segments of the coronary were placed in an organ tank filled with Ringer solution at 37° C. The segments were tightened progressively to a base tension of around 6 g and contracted by the addition of PGF2α at a concentration of 4.10^-6 M. The potential of the products of the present invention to relax the coronary artery were then tested.
All of the compounds were tested for their capacity to relax the porcine coronary precontracted by PGF2α.

[4] = target: central receptors for benzodiazepines; test: Displacement of [3H]-RO 151788, rat central nervous system microsomal fractions; type: binding; details: corrected for DMSO, read-out: K0.5, central receptors, [^3 H]--RO 151788
[5] = porcine coronary segments, 37° C., PGF2α 4.10^-6 M, corrected for DMSO
[6] = porcine coronary segments, PGF2α 4.10^-6 M

CCc1c(-c2ccccc2)nc2c3ccccc3n(CC(=O)N(CC)CC)c(=O)n12 [Example 25, 2-phenyl-3-ethyl-6-N,N-diethylaminocarbonylmethyl-5-oxo-5,6-dihydroimidazo[1,2-c]quinazoline]
IC50 [1]: 0.032 µM
IC50 [2]: 0.05 µM
EC20 [3, 5]: > 100 µM
EC50 [3, 5]: 370 µM

CCN(CC)C(=O)Cn1c(=O)n2c(CN(C)C)c(-c3ccccc3)nc2c2ccccc21 [Example 5, 2-Phenyl-3-dimethylaminomethyl-6-N,N-diethylaminocarbonylmethyl-5-oxo-5,6-dihydroimidazo[1,2-c]quinazoline]
IC50 [1]: 2.2 µM
IC50 [2]: 4.5 µM
EC20 [3, 5]: 144 µM
EC50 [3, 5]: 18.9 µM

CC(C)CNC(=O)Cn1c(=O)n2cc(-c3ccccc3)nc2c2ccccc21 [Example 24, 2-phenyl-6-N-isobutylaminocarbonylmethyl-5-oxo-5,6-dihydroimidazo[1,2-c]quinazoline]
IC50 [1]: > 100 µM
IC50 [4]: > 100 µM
IC50 [2]: > 100 µM
EC20 [3, 5]: 24.1 µM
EC50 [3, 5]: 0.99 µM

CCN(CC)C(=O)Cn1c(=O)n2cc(C(=O)c3ccccc3)nc2c2ccccc21 [Example 6, 2-Benzoyl-6-N,N-diethylaminocarbonylmethyl-5-oxo-5,6-dihydroimidazo[1,2-c]quinazoline]
IC50 [1]: 0.22 µM
IC50 [2]: 0.2 µM

CN1CCN(C(=O)Cn2c(=O)n3cc(-c4ccccc4)nc3c3ccccc32)CC1 [Example 12, 2-phenyl-6-N-methylpiperazinocarbonylmethyl-5-oxo-5,6-dihydroimidazo[1,2-c]quinazoline]
IC50 [1]: 80 µM
IC50 [2]: 40 µM
EC20 [3, 5]: 587 µM
EC50 [3, 5]: 31.9 µM

CCN(CC)C(=O)Cn1c(=O)n2cc(-c3ccsc3)nc2c2ccccc21 [Example 22, 2-(3-thienyl)-6-N,N-diethylaminocarbonylmethyl-5-oxo-5,6-dihydroimidazo[1,2-c]quinazoline]
IC50 [1]: 0.2 µM
IC50 [4]: > 100 µM
IC50 [2]: 0.13 µM
EC20 [3, 5]: 3.51 µM
EC50 [3, 5]: 0.73 µM

O=C(Cn1c(=O)n2cc(-c3ccccc3)nc2c2ccccc21)N1CCOCC1 [Example 16, 2-phenyl-6-morpholinocarbonylmethyl-5-oxo-5,6-dihydroimidazo[1,2-c]quinazoline]
IC50 [1]: > 100 µM
IC50 [4]: > 100 µM
IC50 [2]: > 100 µM
EC20 [3, 5]: 12.3 µM
EC50 [3, 5]: 3.49 µM

CCN(CC)C(=O)Cn1c(=O)n2cc(-c3ccccc3Cl)nc2c2ccccc21 [Example 30, 2-(o-chlorophenyl)-6-N,N-diethylaminocarbonylmethyl-5-oxo-5,6-dihydroimidazo[1,2-c]quinazoline]
IC50 [1]: 0.28 µM
IC50 [2]: 0.034 µM
EC20 [3, 5]: 73.9 µM
EC50 [3, 5]: 10.4 µM

CCN(CC)C(=O)Cn1c(=O)n2cc(-c3ccc(C)cc3)nc2c2ccccc21 [Example 18, 2-(p-methylphenyl)-6-N,N-diethylaminocarbonylmethyl-5-oxo-5,6-dihydroimidazo[1,2-c]quinazoline]
IC50 [1]: 0.21 µM
IC50 [4]: 100 µM
IC50 [2]: 0.07 µM
EC20 [3, 5]: 8.37 µM
EC50 [3, 5]: 0.94 µM

CCOC(=O)COc1ccc2c(=O)cc(-c3ccccc3)oc2c1 [Efloxate, efloxate, reference compound]
IC50 [1]: 20 µM
IC50 [2]: 200 µM
EC20 [3, 5]: 35.8 µM
EC50 [3, 5]: 3.94 µM

OCCN(CCO)c1nc(N2CCCCC2)c2nc(N(CCO)CCO)nc(N3CCCCC3)c2n1 [Dipyridamole, dipyridamole, reference compound]
IC50 [1]: 0.3 µM
IC50 [2]: 0.2 µM
EC20 [3, 5]: 1.61 µM
EC50 [3, 5]: 0.446 µM

CCOC(=O)c1cn2c(=O)n(CC(=O)N(CC)CC)c3ccccc3c2n1 [Example 2, 2-Ethoxycarbonyl-6-N,N-diethylaminocarbonylmethyl-5-oxo-5,6-dihydroimidazo[1,2-c]quinazoline]
IC50 [1]: 0.55 µM

CCC(C)N(C)C(=O)c1cc2ccccc2c(-c2ccccc2Cl)n1 (stereo not shown) [PK 11195, reference compound]
EC20 [3]: 9.13 µM
EC50 [3]: 1.66 µM

CCN(CC)C(=O)Cn1c(=O)n2cc(-c3ccccc3)nc2c2ccccc21 [Example 11, 2-phenyl-6-N,N-diethylaminocarbonylmethyl-5-oxo-5,6-dihydroimidazo[1,2-c]quinazoline]
IC50 [4]: > 100 µM
EC20 [3, 5]: 6.93 µM
EC50 [3, 5]: 1.13 µM
level of relaxation obtained as well as the 50% effect value (K0.5) obtained by displacement [3]: particularly favorable

CCCN(CCC)C(=O)Cn1c(=O)n2c(C)c(-c3cccc(Cl)c3)nc2c2ccccc21 [Example 32, 2-(m-chlorophenyl)-3-methyl-6-N,N-dipropylaminocarbonylmethyl-5-oxo-5,6-dihydroimidazo[1,2-c]quinazoline]
IC50 [1]: 0.0024 µM
IC50 [4]: > 100 µM
IC50 [2]: 0.0031 µM
level of relaxation obtained as well as the 50% effect value (K0.5) obtained by displacement [3]: particularly favorable

CCOC(=O)c1cn2c(=O)[nH]c3ccccc3c2n1 [Example 1, 2-Ethoxycarbonyl-5-oxo-5,6-dihydroimidazo[1,2-c]quinazoline]
IC50 [1]: > 100 µM
IC50 [4]: 1 µM
IC50 [2]: 61 µM
Effect on coronary tension induced by PGF2α (in words) [3, 6]: No effect

CCN(CC)C(=O)CCCn1c(=O)n2cc(-c3ccccc3)nc2c2ccccc21 [Example 26, 2-phenyl-6-N,N-diethylaminocarbonylpropyl-5-oxo-5,6-dihydroimidazo[1,2-c]quinazoline]
IC50 [1]: 10 µM
IC50 [4]: 100 µM
IC50 [2]: 2.3 µM
EC20 [3, 5]: 45.3 µM
EC50 [3, 5]: 7.67 µM

O=c1[nH]c2ccccc2c2nc(-c3ccccc3)cn12 [Example 3, 2-Phenyl-5-oxo-5,6-dihydroimidazo[1,2-c]quinazoline]
IC50 [1]: 4.5 µM
IC50 [2]: > 100 µM
EC20 [3, 5]: 35.4 µM
EC50 [3, 5]: 7.48 µM

CN1C(=O)CN=C(c2ccccc2)c2cc(Cl)ccc21 [Diazepam, diazepam, reference compound]
EC20 [3]: 16.4 µM

CCN(CC)C(=O)Cn1c(=O)n2c(C)c(-c3ccccc3)nc2c2ccccc21 [Example 20, 2-phenyl-3-methyl-6--N,N-diethylaminocarbonylmethyl-5-oxo-5,6-dihydroimidazo[1,2-c]quinazoline]
IC50 [2]: 0.0086 µM
EC20 [3, 5]: 3.46 µM
EC50 [3, 5]: 0.87 µM

CCN(CC)C(=O)Cn1c(=O)n2cc(C(N)=O)nc2c2ccccc21 [Example 4, 2-Aminocarbonyl-6-N,N-diethylaminocarbonylmethyl-5-oxo-5,6-dihydroimidazo[1,2-c]quinazoline]
IC50 [1]: 8 µM
IC50 [4]: > 100 µM
IC50 [2]: 6 µM
EC20 [3, 5]: 57.4 µM
EC50 [3, 5]: 9.66 µM

CCN(CC)C(=O)Cn1c(=O)n2cc(-c3ccc(OC)c(OC)c3)nc2c2ccccc21 [Example 23, 2-(3,4-dimethoxyphenyl)-6-N,N-diethylaminocarbonylmethyl-5-oxo-5,6-dihydroimidazo[1,2-c]quinazoline]
IC50 [4]: > 100 µM
EC20 [3, 5]: 0.74 µM
EC50 [3, 5]: 0.18 µM

CCOC(=O)c1cn2c(=O)n(Cc3ccccc3)c3ccccc3c2n1 [Example 10, 2-ethoxycarbonyl-6-benzyl-5-oxo-5,6-dihydroimidazo[1,2-c]quinazoline]
IC50 [1]: ~100 µM
IC50 [2]: 8.8 µM
EC20 [3, 5]: 3.33 µM
EC50 [3, 5]: 1.04 µM
level of relaxation obtained as well as the 50% effect value (K0.5) obtained by displacement [3]: particularly favorable

CCOC(=O)c1cn2c(=O)n(C)c3ccccc3c2n1 [Example 8, 2-ethoxycarbonyl-6-methyl-5-oxo-5,6-dihydroimidazo[1,2-c]quinazoline]
IC50 [1]: > 100 µM
IC50 [2]: 30 µM
Effect on coronary tension induced by PGF2α (in words) [3, 6]: No effect

O=C(c1ccccc1)c1cn2c(=O)[nH]c3ccccc3c2n1 [Example 9, 2-benzoyl-5-oxo-5,6-dihydroimidazo[1,2-c]quinazoline]
IC50 [1]: 28 µM
IC50 [2]: 13 µM
Effect on coronary tension induced by PGF2α (in words) [3, 6]: No effect

Cn1c(=O)n2cc(-c3ccccc3)nc2c2ccccc21 [Example 29, 2-phenyl-6-methyl--5-oxo-5,6-dihydroimidazo[1,2-c]quinazoline]
IC50 [1]: > 100 µM
IC50 [2]: > 100 µM
EC20 [3, 5]: > 100 µM
EC50 [3, 5]: > 100 µM

CCN(CC)C(=O)Cn1c(=O)n2cc(-c3ccccc3)nc2c2c(Cl)cccc21 [Example 31, 2-phenyl-6-N,N-diethylaminocarbonylmethyl-10-chloro-5-oxo-5,6-dihydroimidazo[1,2-c]quinazoline]
IC50 [1]: 1.4 µM
IC50 [4]: 100 µM
IC50 [2]: 2.8 µM

CCCN(CCC)C(=O)Cn1c(=O)n2cc(-c3ccccc3)nc2c2ccccc21 [Example 28, 2-phenyl-6-N,N-dipropylaminocarbonylmethyl-5-oxo-5,6-dihydroimidazo[1,2-c]quinazoline]
IC50 [4]: 100 µM
EC20 [3, 5]: > 100 µM
EC50 [3, 5]: 196 µM
level of relaxation obtained as well as the 50% effect value (K0.5) obtained by displacement [3]: particularly favorable

CN1C(=O)CN=C(c2ccc(Cl)cc2)c2cc(Cl)ccc21 [Example R05-4864, reference compound]
EC20 [3]: 9.38 µM
EC50 [3]: 1.48 µM
